Two sequences from patent US20050059627A1, “CRF2 ligands in combination therapy” (priority 2000, published 2005) can be followed below.

d = 2'-deoxy (DNA); m = 2'-O-methyl

Data set [1] has as its system CRF2 receptor mRNA. As to the kind of experiment: Quantitative in situ hybridization of CRF2 receptor mRNA. It is filed as in vivo, rodent. Particulars: 9 days dosing. An excerpt:
The absence of functional changes resulting from small antisense inhibitory effects often leads to non-interpretable results. This is due to the uncertainty of whether the experiment produced truly negative results or whether the antisense inhibition was insufficient to reveal a functional change. In addition to the antisense sequence, the magnitude of antisense inhibitory effects is influenced by the duration of antisense treatment and its relation to the half-life of the targeted protein. While the half-life of the CRF2 receptor is unknown, half-lives of other 7-transmembrane receptors in rodent brain (of which the CRF2 receptor is a member) are on the order of 2-3 days. Maximal inhibitory effects are typically seen after antisense treatment for at least 3 protein half-lives. While CRF2 antisense administration for 5 days produced a 40-50% inhibition of the receptor, increasing the duration of dosing to 9 days led to a 70-80% inhibitory effect on receptor binding. […] Therefore, in contrast to Heinrichs et al. whose CRF2 antisense oligonucleotide produced only a 15-20% CRF2 receptor reduction concomitant with significant weight loss in the treated animals, we have optimized antisense reagents for the study of CRF2 receptor function.

The test system of data set [2] is rats. As to the kind of experiment: Elevated plus maze assay. It is filed as in vivo, rat. Particulars: dosed 8 days, tested 2 hours after last injection; FIG. 4a. The text has this: The elevated plus maze (EPM) is widely used for the determination of anxiolytic or anxiogenic drug effects. The apparatus consists of a +-shaped maze, elevated 50 cm above the floor. Two opposing arms are open and exposed to the environment while the other two arms are enclosed with black Plexiglas sides. In rodents, exposure to the EPM produces an approach/avoidance conflict which generally causes the animal to spend most of its time in the closed arms of the maze.
In the antisense experiment, rats were dosed for 8 days and then tested in the EPM 2 hours after the last oligonucleotide injection. […] Such behavior is indicative of a reduced state of anxiety. […] Binding of ^125I-sauvagine to CRF2 receptors in the lateral septum was reduced by 60% by the antisense oligonucleotide in this experiment (FIG. 4b).
Oligonucleotide treatment of rats was begun on the 8th day following surgery. Rats were tested in the EPM 2 hours following dosing on the 8th day of treatment. At the start of the test, the rat was placed in the center square of the maze and its exploratory behavior during the ensuing 10 minutes was recorded by video-camera. An observer situated outside the test room scored the time spent in the open and closed arms, as well as the number of entries into each arm of the maze. The rats were euthanitized immediately following the conclusion of the test.

Data set [3] relates to rats. As to the kind of experiment: Freezing assay of anxiety (shock box). The class given is in vivo, rat. As to the method: CRF2 antisense oligonucleotides were administered intracerebroventricularly to target the lateral septum, a brain region containing high levels of CRF2 receptor and mRNA. The lateral septum is part of the limbic brain region known for its involvement in modulating fear and emotion. Rats treated with saline, antisense and mismatch-control oligonucleotides were tested in two different behavioral models of anxiety. Rodents display a characteristic freezing behavior when experiencing fear and anxiety. In the freezing model of anxiety, such behavior is induced by exposure to brief electrical foot-shocks. […] Administration of anxiolytic drugs such as benzodiazepines and selective serotonin reuptake inhibitors reduces the duration of freezing when previously shocked animals are returned to the shock box. In the antisense experiments, dosing of oligonucleotides began after two consecutive days of foot-shock treatment. Two hours following the last oligonucleotide administration on day 8 of dosing, rats were returned to the shock box and observed for 10 minutes. In this part of the experiment, which examines the effect of the pharmacological agent on conditioned fears, the antisense oligonucleotide, but not its mismatch control, reduced the duration of freezing by 50% (FIG. 3a). […] Furthermore, a robust suppression of CRF2 receptors produced important functional consequences that may not be apparent at lower levels of CRF2 receptor inhibition.
The shock box consisted of a black Plexiglas chamber with walls and cover. The doors of the box were constructed of clear Plexiglas over which one-way mirrors were attached for observation. The floor of the box contained a Coulbourn stainless steel shock grid with the bars of the grid spaced 1 cm apart. On the 8th day following surgical implantation of the guide cannulae, rats were placed in the box and allowed to habituate for 2 minutes. A total of 3 scrambled, randomized non-escapable foot-shocks (1.0 mA, 1 second duration) were then delivered at 20 second intervals to the grid floor. […]

Data set [4] has as its system CRF2 receptors. As to the kind of experiment: CRF2 receptor autoradiography: 125I-sauvagine binding in lateral septum of treated rats. The class given is in vivo, rat. As for the experimental part:
Rats were sacrificed by exposure to CO2. Brains were removed and frozen in methylbutane cooled on dry ice before storage at −80° C. Twenty μm sections through the lateral septum were cut on a cryostat(Kopf Instruments) for receptor autoradiography.
After warming to room temperature for 1 hour, brain sections were preincubated for 5 minutes in 50 mM Tris-HCL (pH 7.5) containing 10 mM MgCl2, 2 mM EGTA (ethylene glycol-bis(β-aminoethyl ether)N,N,N′,N′-tetraacetic acid), 0.1% ovalbumin, 0.08 TIU aprotinin and 0.1 mM bacitracin. Total binding was defined using 0.15 nM ^125I-sauvagine (New England Nuclear). CRF2 specific binding was determined in the presence of 1 μM SC-241, a CRF1 selective receptor antagonist (D. H. Rominger et alJ. Pharmacol. Exp. Therap., 286, 459-468, 1998). Non-specific binding was determined using 1 μM a-helical CRF (American Peptide). Incubations were performed in preincubation buffer containing radioligand and appropriate antagonists for 150 minutes. Tissue sections were then washed twice for 5 minutes each, in PBS containing 0.01% Triton X-100. After a final water rinse, excess water was aspirated and the sections were air-dried overnight. The sections and ^125I standard strips (Amersham) were exposed to Hyperfilm μ-Max (Amersham) for 72 hours.
Quantitation of CRF2 specific binding was performed using the NIH ImageMG 1.44 program. Optical density readings were converted to nCi of ligand bound per mg of protein tissue using ^125I standard strips. Between 7 to 9 adjacent sections were quantitated per rat.

For the sequence “TGA CGC agc ggc acC AGA CC (TGACGCAGCGGCACCAGACC; sugars from the 5' end m6 d8 m6, linkages o6 s8 o5 (s phosphorothioate, o phosphodiester), methylation of C not given here) [antisense oligonucleotide]”, the “decrease in CRF2 receptor mRNA” value in data set [1] is recorded as “comparable decreases”. The “time in the open arms of the maze” value in data set [2] was “significantly more time in the open, exposed arms”. The “reduction in the duration of freezing” value in data set [3] (after two brief foot-shocks, additional 10 minutes, vs saline or mismatch, FIG. 3a) turned out to be 50%. Also, the “freezing in the conditioned anxiety test” value in data set [3] (combination study: antisense icv 7 days, DPC904 oral, FIG. 7b) is on record as “significant reductions in freezing”. For the same sequence, the “reduction of duration of freezing” value in data set [3] (conditioned fear, icv, return to shock box, first 10 minutes, FIG. 3a) was 50%. Besides, in data set [4] (administration for 5 days), the “inhibition of the receptor” value was 40-50%. The CRF2 receptor binding in data set [4] (combination study, saline/methocel control 1.20±0.05) turned out to be 0.51±0.08 nCi/mg. The “inhibitory effect on receptor binding” value in data set [4] (dosing for 9 days) is 70-80%. Besides, the “reduction of binding of 125I-sauvagine to CRF2 receptors in the lateral septum” value in data set [4] (rats of the elevated plus maze experiment, FIG. 4b) amounted to 60%. In data set [4] (septal brain region of rats of the freezing assay, FIG. 3b), the “reduction in 125I-sauvagine binding to CRF2 receptors” value was found to be 70%.
On to “TGA GGC acc gga acC ACA CC (TGAGGCACCGGAACCACACC; sugars from the 5' end m6 d8 m6, linkages o6 s8 o5 (s phosphorothioate, o phosphodiester), methylation of C not given here) [Mismatch oligonucleotide, 4-base mismatch control of the antisense oligonucleotide, same chimeric chemistry, reference compound]”, for which the “decrease in CRF2 receptor mRNA” value in data set [1] was “minimal decreases”. For the same sequence, the “time in the open arms of the maze” value in data set [2] is recorded as “not statistically different from saline-treated rats”. Besides, the “decrease in receptor binding” value in data set [4] (9 days dosing) is on record as “minimal decreases”.
